Measurements published in patent US9187497B2, “Substituted pyrido[3,2-e]pyrrolo[1,2-a]pyrazines as inhibitors of poly(ADP-ribose)polymerase (PARP)” (Takeda Phamaceutical Company Limited, priority 2009, dated 2015).

What was measured:
Jurkat cell line = experiment: PARP cellular chemopotentiation assay (MTS cell viability with and without TMZ); type: cell-based; details: ratio of EC50 for inhibition of cell viability without and with 100 μM TMZ; Jurkat cells, 96 hours of treatment
Method in brief: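 Jurkat cells, 10,000/well, pre-cultured 24 h, then treated 96 h with serial compound dilutions (0.5% DMSO) with or without 100 μM TMZ. Viability by MTS conversion (OD490), normalized to DMSO controls; EC50 from curve fits, PF50 = EC50 without TMZ / EC50 with TMZ.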

[1] = molecular target: T1, catalytic domain of Human PARP (Homo sapiens, UniProt P09874); experiment: Biacore surface plasmon resonance affinity assay (dissociation constant KD); type: binding; details: pKD=-log(KD), KD in molar concentration; Biacore T100, 25° C.
T1 construct: The catalytic domain of Human PARP was cloned and prepared; made in house
T1 sequence (P09874 788-1014 limits assumed): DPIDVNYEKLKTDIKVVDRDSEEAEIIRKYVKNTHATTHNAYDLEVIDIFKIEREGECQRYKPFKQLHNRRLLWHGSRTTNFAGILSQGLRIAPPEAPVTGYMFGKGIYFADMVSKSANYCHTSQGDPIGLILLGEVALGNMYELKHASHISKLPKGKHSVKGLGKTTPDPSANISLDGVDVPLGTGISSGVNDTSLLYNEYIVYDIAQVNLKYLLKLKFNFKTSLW
Procedure: Dissociation Constant (KD) from Surface Plasmon Resonance
The catalytic domain of Human PARP was cloned and prepared as described in Kinoshita, T.; Nakanishi, I.; Warizaya, M.; Iwashita, A.; Kido, Y.; Hattori, K. and Fujii, T. 2006 FEBS Letters 556, 43-46. Purified enzyme was stored at −80° C. in 25 mM Tris(hydroxymethyl)aminomethane (Tris) pH 7.4, 150 mM NaCl, 2 mM dithiothreitol (DTT) at a concentration of 6 mg/ml.
Biacore affinity assays for test compounds were conducted on a Biacore T100 (GE Healthcare) as follows. A Series S Sensor Chip CM5 (part number BR-1006-68, GE Healthcare) was activated for amide coupling with an Amine Coupling Kit (part number BR-1000-50, GE Healthcare) as described by the manufacturer. The mobile phase buffer consisted of Biacore buffer HBS-P (part number BR-1003-68, GE Healthcare) supplemented with 1% v/v dimethylsulfoxide (DMSO), 0.5 mM Tris(2-carboxyethyl)phosphine hydrochloride (TCEP), and 5 mM MgCl2. Enzyme samples (2 μl/6 mg/ml) stored at −80° C. were diluted to 0.080 mg/ml with 10 mM 4-morpholineethanesulfonic acid (MES) pH 6.5 and then mounted on the activated Biacore CM5 chip at a flow rate of 10 μl/min for 240 seconds. When successfully mounted, a signal of approximately 8,000 reflective units was observed. Test compounds were diluted 9 times 2-fold serially in mobile phase buffer (listed above) at 1% v/v DMSO final to generate a concentration gradient bracketing their anticipated KDs. Biacore mounted PARP was given a 1 minute exposure (association phase) to various concentrations of test compounds to observe a steady state equilibrium or an on rate. The exposure was followed with a dissociation phase of 5 minutes. The association and dissociation phases were at a flow rate of 50 μl/min and a temperature of 25° C.
Parameters Rmax (response at saturation) and KD (binding constant) were calculated through a nonlinear least squares fitting of the equation to the data by use of the Biacore T100 analysis software.
Parameter optimization was through a nonlinear least squares analysis of the association phase Response=Rmax*(1−exp(−(kon[cmpd]+koff)*t)) and dissociation phase Response=[…] by use of the Biacore T100 analysis software. The binding constant KD was calculated from the definition KD=koff/kon

PARP = molecular target: T2, PARP (Homo sapiens, UniProt P09874); experiment: PARP ELISA colorimetric assay of inhibition of PARP catalytic activity (IC50); type: biochemical; details: pIC50=-log(IC50), IC50 in molar concentration; ELISA-based PARP kit, 10 minutes of catalysis
T2 construct: purchased Trevigen 4684-096-01 (enzyme); kit 4684-096-K HT
T2 sequence (P09874 whole entry): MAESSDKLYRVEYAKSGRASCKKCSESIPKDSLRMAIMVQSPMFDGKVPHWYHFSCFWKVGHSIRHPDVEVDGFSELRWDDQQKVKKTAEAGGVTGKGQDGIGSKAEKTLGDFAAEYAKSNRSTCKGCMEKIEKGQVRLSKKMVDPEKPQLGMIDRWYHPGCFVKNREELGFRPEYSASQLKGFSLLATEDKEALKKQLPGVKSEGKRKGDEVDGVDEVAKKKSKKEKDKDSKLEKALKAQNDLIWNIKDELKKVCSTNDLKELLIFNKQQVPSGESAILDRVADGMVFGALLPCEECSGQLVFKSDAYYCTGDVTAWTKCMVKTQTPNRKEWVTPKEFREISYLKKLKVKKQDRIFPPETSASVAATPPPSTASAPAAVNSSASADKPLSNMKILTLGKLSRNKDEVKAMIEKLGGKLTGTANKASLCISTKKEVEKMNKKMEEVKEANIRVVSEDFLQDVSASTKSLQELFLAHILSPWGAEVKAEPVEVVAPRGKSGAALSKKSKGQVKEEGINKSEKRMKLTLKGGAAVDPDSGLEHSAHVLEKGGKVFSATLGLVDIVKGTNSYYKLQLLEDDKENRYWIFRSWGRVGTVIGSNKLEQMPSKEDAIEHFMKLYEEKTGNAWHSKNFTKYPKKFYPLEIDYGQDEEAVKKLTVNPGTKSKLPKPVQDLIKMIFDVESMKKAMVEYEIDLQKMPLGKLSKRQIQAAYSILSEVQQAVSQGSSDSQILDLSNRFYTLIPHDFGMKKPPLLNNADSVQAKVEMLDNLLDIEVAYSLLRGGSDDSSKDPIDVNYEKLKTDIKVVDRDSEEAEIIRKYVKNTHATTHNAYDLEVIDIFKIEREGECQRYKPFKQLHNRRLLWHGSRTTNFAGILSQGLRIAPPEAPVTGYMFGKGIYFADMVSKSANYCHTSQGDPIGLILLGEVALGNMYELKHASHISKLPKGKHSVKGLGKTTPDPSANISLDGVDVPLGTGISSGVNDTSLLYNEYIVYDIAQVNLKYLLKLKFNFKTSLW
Method in brief: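 Human PARP was added as a 0.1 nM solution to histone-coated wells with compound for a 10-min ambient preincubation. The reaction was started with 100 μM NAD+ solution plus activated DNA and run 10 min. PAR formation was detected by anti-PAR ELISA, colorimetric. IC50 came from a 12-point, 3-fold gradient fitted by nonlinear least squares to a Hill equation.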

Structure (SMILES) | melting point [°C] | PF50 (Jurkat cell line) | Kd [1] [nM] | IC50 (PARP) [nM]
O=C1Nc2cc(CN3CCN(c4ccc(Cl)cc4)CC3)cnc2N2CCC[C@@H]12 [Compound 1, (S)-3-((4-(4-chlorophenyl)piperazin-1-yl)methyl)-6a,7,8,9-tetrahydropyrido[3,2-e]pyrrolo[1,2-a]pyrazin-6(5H)-one] | 265 to 268 | >500 |  | 
CCNC(=O)c1ccc(N2CCN(Cc3cnc4c(c3)NC(=O)[C@@H]3CCCN43)CC2)cc1 [Compound 10, (S)—N-ethyl-4-(4-((6-oxo-5,6,6a,7,8,9-hexahydropyrido[3,2-e]pyrrolo[1,2-a]pyrazin-3-yl)methyl)piperazin-1-yl)benzamide] |  | >5000 | < 31.6 | ≤ 12.6
N#Cc1ccc(N2CCN(Cc3cnc4c(c3)NC(=O)[C@@H]3CCCN43)CC2)c(F)c1 [Compound 14, (S)-3-fluoro-4-(4-((6-oxo-5,6,6a,7,8,9-hexahydropyrido[3,2-e]pyrrolo[1,2-a]pyrazin-3-yl)methyl)piperazin-1-yl)benzonitrile] | 226 | >500 |  | 
N#Cc1ccc(N2CCN(Cc3cnc4c(c3)NC(=O)[C@@H]3CCCN43)CC2)c(Cl)c1 [Compound 16, (S)-3-chloro-4-(4-((6-oxo-5,6,6a,7,8,9-hexahydropyrido[3,2-e]pyrrolo[1,2-a]pyrazin-3-yl)methyl)piperazin-1-yl)benzonitrile] | 213 to 215 | >500 |  | 
N#Cc1cc(F)c(N2CCN(Cc3cnc4c(c3)NC(=O)[C@@H]3CCCN43)CC2)cc1F [Compound 17, (S)-2,5-difluoro-4-(4-((6-oxo-5,6,6a,7,8,9-hexahydropyrido[3,2-e]pyrrolo[1,2-a]pyrazin-3-yl)methyl)piperazin-1-yl)benzonitrile] | 224 to 227 | >2000 |  | 
N#Cc1ccc(N2CCN(Cc3cnc4c(c3)NC(=O)[C@@H]3CCCN43)CC2)cc1F [Compound 21, (S)-2-fluoro-4-(4-((6-oxo-5,6,6a,7,8,9-hexahydropyrido[3,2-e]pyrrolo[1,2-a]pyrazin-3-yl)methyl)piperazin-1-yl)benzonitrile] | 251 to 255 | >2000 |  | 
C[C@H]1C(=O)Nc2cc(CN3CCC(c4ccc(Cl)cc4)CC3)cnc2N1C [Compound 53, (S)-7-((4-(4-chlorophenyl)piperidin-1-yl)methyl)-3,4-dimethyl-3,4-dihydropyrido[3,2-b]pyrazin-2(1H)-one] |  | ≧0 | 31.6 to 794 | ≥ 50.1
C[C@H]1C(=O)Nc2cc(CN3CC=C(c4ccccc4)CC3)cnc2N1C [Compound 57, (S)-3,4-dimethyl-7-((4-phenyl-5,6-dihydropyridin-1(2H)-yl)methyl)-3,4-dihydropyrido[3,2-b]pyrazin-2(1H)-one] |  | ≧0 | < 31.6 | 
C[C@H]1C(=O)Nc2cc(CN3CCN(c4ccc(Cl)cc4)CC3)cnc2N1C [Compound 59, (S)-7-((4-(4-chlorophenyl)piperazin-1-yl)methyl)-3,4-dimethyl-3,4-dihydropyrido[3,2-b]pyrazin-2(1H)-one] |  | ≧0 | < 31.6 | 
CCN1c2ncc(CN3CC=C(c4ccc(Cl)cc4)CC3)cc2NC(=O)[C@@H]1C [Compound 63, (S)-7-((4-(4-chlorophenyl)-5,6-dihydropyridin-1(2H)-yl)methyl)-4-ethyl-3-methyl-3,4-dihydropyrido[3,2-b]pyrazin-2(1H)-one] |  | ≧0 | 31.6 to 794 | 
O=C1Nc2cc(CN3CC=C(c4ccc(Cl)cc4)CC3)cnc2N2CCCCC12 (stereo not shown) [Compound 65, 3-((4-(4-chlorophenyl)-5,6-dihydropyridin-1(2H)-yl)methyl)-7,8,9,10-tetrahydro-5H-dipyrido[1,2-a:3′,2′-e]pyrazin-6(6aH)-one] |  | >10 | ≥ 1000 | ≤ 12.6
O=C1Nc2cc(CN3CCN(c4ccc(Cl)cc4)CC3)cnc2N2CCCCC12 (stereo not shown) [Compound 66, 3-((4-(4-chlorophenyl)piperazin-1-yl)methyl)-7,8,9,10-tetrahydro-5H-dipyrido[1,2-a:3′,2′-e]pyrazin-6(6aH)-one] |  | >10 | ≥ 1000 | 15.8 to 39.8
O=C1Nc2cc(CN3CCC(c4ccc(Cl)cc4)CC3)cnc2N2CCCCC12 (stereo not shown) [Compound 67, 3-((4-(4-chlorophenyl)piperidin-1-yl)methyl)-7,8,9,10-tetrahydro-5H-dipyrido[1,2-a:3′,2′-e]pyrazin-6(6aH)-one] |  | ≧0 | < 31.6 | 15.8 to 39.8
CN1CC(=O)Nc2cc(CN3CC=C(c4ccc(Cl)cc4)CC3)cnc21 [Compound 80, 7-((4-(4-chlorophenyl)-5,6-dihydropyridin-1(2H)-yl)methyl)-4-methyl-3,4-dihydropyrido[2,3-b]pyrazin-2(1H)-one] |  | ≧0 | < 31.6 | ≥ 50.1
CN1CC(=O)Nc2cc(CN3CCN(c4ccc(Cl)cc4)CC3)cnc21 [Compound 81, 7-((4-(4-chlorophenyl)piperazin-1-yl)methyl)-4-methyl-3,4-dihydropyrido[2,3-b]pyrazin-2(1H)-one] |  | ≧0 | 31.6 to 794 | ≥ 50.1
CN1CC(=O)Nc2cc(CN3CCC(c4ccc(Cl)cc4)CC3)cnc21 [Compound 82, 7-((4-(4-chlorophenyl)piperidin-1-yl)methyl)-4-methyl-3,4-dihydropyrido[2,3-b]pyrazin-2(1H)-one] |  | ≧0 | 31.6 to 794 | ≥ 50.1
O=C1CN(Cc2ccccc2)c2ncc(CN3CC=C(c4ccc(Cl)cc4)CC3)cc2N1 [Compound 83, 4-benzyl-7-((4-(4-chlorophenyl)-5,6-dihydropyridin-1(2H)-yl)methyl)-3,4-dihydropyrido[2,3-b]pyrazin-2(1H)-one] |  | ≧0 | ≥ 1000 | 15.8 to 39.8
O=C1CN(Cc2ccccc2)c2ncc(CN3CCN(c4ccc(Cl)cc4)CC3)cc2N1 [Compound 84, 4-benzyl-7-((4-(4-chlorophenyl)piperazin-1-yl)methyl)-3,4-dihydropyrido[2,3-b]pyrazin-2(1H)-one] |  | ≧0 | 31.6 to 794 | ≤ 12.6
O=C1CN(Cc2ccccc2)c2ncc(CN3CCC(c4ccc(Cl)cc4)CC3)cc2N1 [Compound 85, 4-benzyl-7-((4-(4-chlorophenyl)piperidin-1-yl)methyl)-3,4-dihydropyrido[2,3-b]pyrazin-2(1H)-one] |  | ≧0 | 31.6 to 794 | 15.8 to 39.8
O=C1Nc2cc(CN3CC=C(c4ccc(Cl)cc4)CC3)cnc2N2CCSCC12 (stereo not shown) [Compound 86, 3-((4-(4-chlorophenyl)-5,6-dihydropyridin-1(2H)-yl)methyl)-6a,7,9,10-tetrahydropyrido[3,2-e][1,4]thiazino[4,3-a]pyrazin-6(5H)-one] |  | >500 | < 31.6 | 15.8 to 39.8
O=C1Nc2cc(CN3CCC(c4ccc(Cl)cc4)CC3)cnc2N2CCSCC12 (stereo not shown) [Compound 88, 3-((4-(4-chlorophenyl)piperidin-1-yl)methyl)-6a,7,9,10-tetrahydropyrido[3,2-e][1,4]thiazino[4,3-a]pyrazin-6(5H)-one] |  | ≧0 | < 31.6 | ≤ 12.6
